In brackets after ≈: the same amount, converted by molar mass. Entries after “also recorded” stand apart in the source; their conditions may differ.
Legend:
[1] = system: Gram-positive pathogens (S. aureus, B. subtilis, E. faecium, MRSA, MDRSA, VREF); assay: Disk diffusion and microbroth dilution assays, strains taken together; type: cell-based
Excerpt: Solid agar disk diffusion and microbroth dilution assays were used to evaluate the antimicrobial activities of compounds 1, hexaacetate 1a, and 4-8 toward clinically relevant, Gram-positive pathogens, including the drug-susceptible bacteria Staphylococcus aureus, Bacillus subtilis and Enterococcus faecium, and drug-resistant strains methicillin-resistant S. aureus (MRSA), multidrug-resistant S. aureus (MDRSA), and vancomycin-resistant E. faecium (VREF) (see Table 7, Example 2).
Compounds 1-8 were tested for antimicrobial activity against Staphylococcus aureus (SA, ATCC 25923), methicillin-resistant S. aureus (MRSA, ATCC BAA-41), multidrug-resistant S. aureus (MDRSA, ATCC BAA-44), Enterococcus faecium (EF, ATCC 49032), vancomycin-resistant E. Faecium (VRE, ATCC 700221), and Bacillus subtilis (ATCC 49343) using a modified disk diffusion assay and microbroth liquid dilution assays. For disk diffusion assays, agar plates seeded with suspensions of bacteria were prepared by adding 500 μL of a 24 h culture of bacteria to 100 mL of autoclaved Mueller Hinton II agar and cooled to 55° C. Seeded liquid agar (10 mL) was transferred immediately to square Petri dishes and allowed to cool for 1 h. Control drugs used for each microorganism included kanamycin (50 μg) for S. aureus, and nitrofurantoin (25 μg) for MRSA. Following incubation at 37° C. for 18 h, zones of inhibition were measured. MICso values for compounds 1 and 4-8 were determined using a microbroth dilution assay outlined in the Clinical and Laboratory Standards Institute methods for susceptibility tests for bacteria that grow aerobically. Briefly, single bacterial colonies were used to inoculate 4 mL of Trypticase Soy broth (BD) for overnight growth and inoculum for each were diluted to 5×10^5 CFU/mL using the 0.5 McFarland standard. […] Plates were incubated at 37° C. overnight and read at absorbance 600 nm on a Molecular Devices plate reader. […]

[2] = system: methicillin-resistant S. aureus (MRSA, ATCC BAA-41); assay: Agar disk diffusion assay, MRSA; type: cell-based, Staphylococcus aureus
Experimental: (§1) Compounds 1-8 were tested for antimicrobial activity against Staphylococcus aureus (SA, ATCC 25923), methicillin-resistant S. aureus (MRSA, ATCC BAA-41), multidrug-resistant S. aureus (MDRSA, ATCC BAA-44), Enterococcus faecium (EF, ATCC 49032), vancomycin-resistant E. Faecium (VRE, ATCC 700221), and Bacillus subtilis (ATCC 49343) using a modified disk diffusion assay and microbroth liquid dilution assays. For disk diffusion assays, agar plates seeded with suspensions of bacteria were prepared by adding 500 μL of a 24 h culture of bacteria to 100 mL of autoclaved Mueller Hinton II agar and cooled to 55° C. Seeded liquid agar (10 mL) was transferred immediately to square Petri dishes and allowed to cool for 1 h. Control drugs used for each microorganism included kanamycin (50 μg) for S. aureus, and nitrofurantoin (25 μg) for MRSA. Following incubation at 37° C. for 18 h, zones of inhibition were measured. MICso values for compounds 1 and 4-8 were determined using a microbroth dilution assay outlined in the Clinical and Laboratory Standards Institute methods for susceptibility tests for bacteria that grow aerobically. Briefly, single bacterial colonies were used to inoculate 4 mL of Trypticase Soy broth (BD) for overnight growth and inoculum for each were diluted to 5×10^5 CFU/mL using the 0.5 McFarland standard. In a 96 well plate (Costar, round bottom), control antibiotics (oxacillin for SA and MRSA, vancomycin for EF and VRE, chloramphenicol for B. subtilis) or natural product inhibitors were added to Muller Hinton II broth (for S. aureus, MRSA, and B. subtilis) or 10% brain heart infusion broth (for E. faecium and VRE) in the first column of the well plates, and serially diluted across the plate, reserving wells for a positive growth control (no treatment). 10 μL of diluted bacteria were added to all wells with the exception of those kept for broth blanks (MHII or brain heart infusion broth only). Plates were incubated at 37° C. overnight and read at absorbance 600 nm on a Molecular Devices plate reader. Growth curves were plotted and ICso values obtained using Kalidagraph software.

[3] = system: methicillin-resistant S. aureus (MRSA, ATCC BAA-41); assay: Microbroth dilution assay, MRSA; type: cell-based, Staphylococcus aureus; settings: microbroth dilution, concentration at which growth is reduced by 50%
Experimental: as §1

[4] = system: murine leukemia cell line P388; assay: Cytotoxicity, P388; type: cell-based; settings: did not inhibit growth at concentrations as high as
[5] = molecular target: T1, recombinant E. coli FtsZ (Escherichia coli, UniProt P0A9A6); assay: FtsZ GTPase colorimetric (malachite green) assay; type: biochemical; settings: 2 μM FtsZ, 0.25 mM GTP, pH 6.5
Experimental: Solutions were incubated at room temperature for 5 min, followed by addition of 0.25 mM GTP. At the end of a 20-min incubation period, enzyme activity was quenched by addition of 50 μL Malachite Green solution and the wells read at A^625 on an absorbance plate reader.

[6] = molecular target: T1, recombinant E. coli FtsZ; assay: FtsZ polymerization assay by transmission electron microscopy; settings: 50 μM compound, 6 μM FtsZ, GTP 1 mM
Experimental: Protofilament formation of E. coli FtsZ was assessed by polymerization assays. […] Following an additional 5 minutes incubation period at room temperature, aliquots (5 μL) were adsorbed onto carbon films on lacey carbon supports on 400-mesh copper grids, rinsed with H2O, and exposed to 3% uranyl acetate for 5 minutes for negative staining. Images were acquired with an FEI Morgani transmission electron microscope, operating at 80 kV, and equipped with an AMT Advantage camera at 44,000× magnification.

T1 sequence (P0A9A6 whole entry): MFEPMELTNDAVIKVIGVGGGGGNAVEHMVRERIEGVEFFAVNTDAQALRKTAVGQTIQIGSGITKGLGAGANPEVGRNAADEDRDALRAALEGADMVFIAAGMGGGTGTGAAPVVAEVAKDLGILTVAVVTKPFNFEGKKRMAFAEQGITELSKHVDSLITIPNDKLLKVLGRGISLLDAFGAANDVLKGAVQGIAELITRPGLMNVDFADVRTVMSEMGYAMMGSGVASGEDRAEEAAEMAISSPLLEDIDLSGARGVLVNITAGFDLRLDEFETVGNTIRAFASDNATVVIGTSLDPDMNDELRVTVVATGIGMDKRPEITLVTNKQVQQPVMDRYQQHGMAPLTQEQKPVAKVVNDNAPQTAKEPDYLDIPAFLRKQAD

For `Oc1cc(O)c2c(c1)C/C(Cl)=C\Cc1cc(c(Cl)cc1O)Oc1c(O)cc(cc1O)C/C(Cl)=C\Cc1cc(c(Cl)cc1O)O2` [Compound 1, chrysophaentin 1], the “potency relative to chrysophaentin 6” value [1] was 3-5 times, the “Agar disk diffusion (μg/disk) MRSA” value ([2]; Lowest concentrations leading to 8-10 mm zones of inhibition) was 2 μg/disk and the zone of inhibition at 2 µg/disc ([2]; Staphylococcus aureus, at 2 μg/disk) was 10 mm. For the same compound, the MIC50 ([3]; Staphylococcus aureus, read-out: MIC50 (μg/mL) MRSA) was 1.5 ± 0.7 µg/mL (≈ 2.21 µM), the “MIC50 (μg/mL) MRSA” value [3] was 1.5 ± 0.7 µg/mL (≈ 2.21 µM) and the “MIC50 (μg/mL) MRSA” value ([3]; listed as Chrysophaentin 1) was 1.8 ± 0.6 µg/mL (≈ 2.65 µM). The “MIC50 (μg/mL) MRSA” value ([3]; listed as chrysophaentin 1) was 1.5 ± 0.7 µg/mL (≈ 2.21 µM), the “concentration without growth inhibition, P388” value [4] was > 50 µg/mL and the IC50 ([5]; IC50, inhibition of GTPase activity of FtsZ (molar), value in brackets) was 9.9 µM. For the same compound, the IC50 ([5]; IC50, inhibition of GTPase activity of FtsZ) was 9.88 µM and the “GTP-dependent FtsZ polymerization and protofilament formation (TEM)” value [6] was “polymerization and protofilament formation were inhibited; also recorded: fully inhibited polymerization and protofilament formation”.
